What all share (format): in vivo
The subject of experiment [1] is NZBWF1 mice. Nature of the experiment: Spleen weight at 42 weeks. How it is done: To determine the effects of compound 148 on inflammatory infiltrate in the spleen, spleens were weighed at 42 weeks. […] Splenocyte suspensions were then prepared. RBCs were lysed and splenocytes were counted.
To determine the effects of compound 5 on inflammatory infiltrate in the spleen, spleens were weighed at 42 weeks. […] The 3 mg/kg dose of compound 5 trended lower indicating fewer inflammatory infiltrates in this organ. Splenocyte suspensions were prepared for all three doses. RBCs were lysed and splenocytes were counted.

Experiment [2] has as its system anti-dsDNA antibodies. Nature of the experiment: Serum anti-dsDNA antibody titers by ELISA. The settings on record: NZBWF1 mice. How it is done: Serum anti-dsDNA antibody titers are used as an indicator of SLE state (see, e.g., Kavanaugh et al., “Guidelines for Clinical Use of the Antinuclear Antibody Test and Tests for Specific Autoantibodies to Nuclear Antigens”, Archives of Pathology & Laboratory Medicine, 124:1, 71-81 (2000)) in most (although not all) patient populations, (see, Isenberg et al., Rheumatology 46:1052-1056, 2007). Titers were measured at 23, 31, 36.5, and 42 weeks. ELISA was performed using an anti-dsDNA ELISA kit (Shibayagi Co., Ltd., cat. no. RSHAKRDD061) following manufacturer's protocol. Results were expressed as optical density (OD) and as arbitrary units per mL. The ELISA standard curve was generated from a pool of sera from mice used a previous study with a known high concentration of anti-dsDNA antibodies. The highest concentration used in the standard curve was 1:100 of that pooled sera. All test samples were diluted 1000-fold for testing. Data was analyzed using http://www.elisaanalysis.com.
As in Example 8, serum anti-dsDNA antibody titers were measured at 22, 30, 36, and 42 weeks. ELISA was performed using an anti-dsDNA ELISA kit.

Experiment [3] relates to NZBWF1 mice. Nature of the experiment: Kidney lesion histology scoring (glomerular, tubular and interstitial lesions). The settings on record: for Tubular and interstitial lesions: 0.3, 1.0, 3.0 mg/kg PO QD. The source says:
Kidney lesions are another indicator of SLE progression. Kidney slides from test mice were stained with H&E and PAS, to evaluate interstitial infiltrates, tubular atrophy, and interstitial fibrosis (collectively, “tubular and interstitial lesions”), mesangial expansion, endocapillary and extracapillary proliferation, glomerular deposits, (collectively, “glomerular lesions”). Each lesion subtype was scored using a 4 point scale: 0=not present, 1=mild, 2=moderate and 3=severe. Average scores were calculated by multiplying the incidence of each grade by the value of the grade for each of the seven lesions and then adding the scores for the group. Thus, an incidence of 3 animals for grade 3 of a lesion equals a score of 9. The scores were then divided by the number of animals scored in the group.
All slides were scored blind by assigning a random number to each animal and then affixing a temporary label with the random number to the slides. Scores were recorded using Graham StarTox software, version 3.1.0. The StarTox software has a setting that limits the screen display to the random number only, without group or animal number information for use while reading the slides.
(§1) As in Example 5, left kidneys were weighed (FIG. 43) following termination at 42 weeks.

Experiment [4] relates to NZBWF1 mice. Kind of experiment: Serum blood urea nitrogen (BUN) at termination. How it is done: Lymphocyte counts were measured from whole blood taken at 23, 31, and 36.5 weeks using flow cytometry. Cells were gated for CD4+ T cells, CD8+ T cells, and CD19+ B cells. […] Serum blood urea nitrogen (BUN) was also measured at termination to assess kidney function.
As in Example 4, serum blood urea nitrogen (BUN) was measured at termination to assess kidney function.

Experiment [5] deals with NZBWF1 mice. Kind of experiment: Proteinuria scores (urine dip sticks) in NZBWF1 SLE mouse model. The note with it: for Proteinuria scores relative to vehicle: 3.0 mg/kg PO QD; for Proteinuria scores compared to vehicle: 0.3, 1.0 and 3.0 mg/kg PO QD. An excerpt: Six groups of NZBWF1 mice (Jackson Laboratories, stock #100008) were used in the study and were acclimated to the research facility for 7 weeks prior to the start of the study. Weekly measurements of proteinuria (excess serum proteins present in the urine) and body weight began at 20 weeks of age. At 23 weeks of age, the mice were assigned to groups in a balanced manner in order to achieve average body weight and average proteinuria measurements across the groups. One “naive” group consisting of 10 mice was euthanized at the start of treatment and used as a source of tissue for analysis. Treatment began at 23 weeks of age.
The three groups dosed with compound 148 received 0.3, 1.0, and 3.0 mg/kg PO QD, respectively (20 mice per dosage). Surviving animals were sacrificed at 42 weeks. […] Disease development was evaluated as disclosed in the following examples.
High levels of proteinuria are a strong indicator of SLE. […] Proteinuria was expressed as a score from 0 to 4 (0=no protein; 1=traces of protein (<30 mg/dL); 2=30-100 mg/dL; 3=100-500 mg/dL; 4=>500 mg/dL).
As in Example 3, proteinuria was measured weekly beginning at 20 weeks using urine dip sticks (Roche Diagnostics Chemstrip 2GP, cat. no. 11895397160, per manufacturer's protocol). Proteinuria was expressed as a score from 0 to 4 (0=no protein; 1=traces of protein (<30 mg/dL); 2=30-100 mg/dL; 3=100-500 mg/dL; 4=>500 mg/dL). […] (In this and the following experiments, the number of mice per group was approximately 20, and statistics were determined by one-way ANOVA with Dunnett's comparison.)

Experiment [6] has as its system NZBWF1 mice. Kind of experiment: Kidney weight at termination (42 weeks).
Description: In SLE, inflammatory infiltrates known as Tertiary Lymphatic Tissue (TLT) accumulate in the kidney and spleen, among other tissues. As an indirect measure of disease progression, right and left kidneys were weighed (FIGS. 4A-4B) following termination at 42 weeks.
as §1

Molecules are shown by their SMILES. “Also recorded” adds a separate entry of the source.

For the compound `CC(C)Oc1ccc(-c2nc(-c3cccc4c3CC[C@@H]4NCCO)no2)cc1C#N` [compound 5, (S)-5-(3-(1-(2-hydroxyethylamino)-2,3-dihydro-1H-inden-4-yl)-1,2,4-oxadiazol-5-yl)-2-isopropoxy benzonitrile], the “Spleen weight relative to vehicle” value is reported as “trended lower” in experiment [1] (3 mg/kg PO QD) and “lower, but not significant relative to vehicle” in experiment [1] (any dose 0.3, 1.0, 3.0 mg/kg PO QD). Besides, the “Serum anti-dsDNA antibody titers” value in experiment [2] (3 mg/kg PO QD, week 42, less than cyclophosphamide) is “decreased antibody titers at week 42”. For the same compound, in experiment [3] (0.3 mg/kg PO QD (compound 5 study)), the Glomerular lesion score result is “glomerular lesion score less than to that of the vehicle control, but not significant”. The “Severity of glomerular lesions” value in experiment [3] (1.0 mg/kg and 3.0 mg/kg PO QD (compound 5 study)) is listed as “dose-independent decrease in the severity of glomerular lesions”. Also, the “Tubular and interstitial lesions compared to cyclophosphamide” value in experiment [3] (3.0 mg/kg PO QD (compound 5 study)) was “not statistically different from treatment with cyclophosphamide”. In addition, in experiment [3] (significant at 1.0 and 3.0 mg/kg (compound 5 study)), the “Tubular and interstitial lesions” value was “dose-dependent decrease in tubular and interstitial lesions”. The “Serum BUN at termination vs vehicle” value in experiment [4] (all doses 0.3, 1.0, 3.0 mg/kg PO QD) is on record as “significant reduction in serum BUN”. For the same compound, in experiment [5] (weeks 22-42), the “Proteinuria scores relative to vehicle” value is on record as “significant improvement relative to vehicle”. In experiment [5] (weeks 22-42), the “Proteinuria scores compared to vehicle” value is “lower proteinuria scores in a dose-dependent fashion”. For the same compound, in experiment [6] (1.0 and 3.0 mg/kg PO QD), the “Left kidney weight relative to vehicle” value is on record as “significantly reduced kidney weight relative to vehicle”.
With `CC(C)Oc1ccc(-c2nc(-c3cccc4c3CC[C@@H]4N)no2)cc1C#N` [compound 148, (S)-5-(3-(1-amino-2,3-dihydro-1H-inden-4-yl)-1,2,4-oxadiazol-5-yl)-2-isopropoxy-benzonitrile], the “Spleen weight relative to vehicle” value in experiment [1] (all groups 0.3, 1.0, 3.0 mg/kg PO QD) was “significantly lower”. In experiment [2] (all three dosages 0.3, 1.0, 3.0 mg/kg PO QD, ELISA optical density), the “Serum anti-dsDNA antibody titers” value is reported as “decreased antibody titers at week 29; also recorded: decrease was not sustained over the course of the study”. For the same compound, the Glomerular lesion score result in experiment [3] (0.3 mg/kg PO QD (compound 148 study)) was “glomerular lesion score similar to that of the vehicle control”. Moreover, the “Severity of glomerular lesions” value in experiment [3] (1.0 mg/kg and 3.0 mg/kg PO QD (compound 148 study)) is on record as “dose-independent decrease in the severity of glomerular lesions”. Further, in experiment [3] (p<0.05 (compound 148 study)), the “Tubular and interstitial lesions” value was “dose-dependent decrease in tubular and interstitial lesions; also recorded: not statistically different from treatment with cyclophosphamide”. In experiment [3] (all three treatment groups 0.3, 1.0, 3.0 mg/kg PO QD), the “Combined kidney lesion score (glomerular plus tubular and interstitial) vs vehicle” value is “dose-related decrease in combined kidney lesion score”. In addition, the “Serum BUN at termination vs vehicle” value in experiment [4] (3 mg/kg PO QD, p<0.05) is “significant reduction in serum BUN”. Also, the “Proteinuria scores relative to vehicle” value in experiment [5] (weeks 23-42, p<0.05, 3 mg/kg) is “significant improvement relative to vehicle; also recorded: efficacy similar to cyclophosphamide”. The “Proteinuria scores compared to vehicle” value in experiment [5] (weeks 23-42) is “lower proteinuria scores in a dose-dependent fashion”. Also, the “Kidney weight relative to vehicle” value in experiment [6] (3.0 mg/kg PO QD, p<0.05) is reported as “significantly reduced kidney weight relative to vehicle”.

For the origin of these results see US11278526B2, “Compounds and methods for treating lupus” (RECEPTOS LLC, priority 2016, dated 2022).
